# Assay results taken from patent US11253604B2, “Conjugate of methotrexate and peptide” (CAREGEN CO., LTD., priority 2017, dated 2022).
# Legend:
# [1] = tested on: HaCaT keratinocyte lines; test: Cytotoxicity test: cell proliferation by MTT analysis (Ez-cytox kit); settings: HaCaT keratinocytes, 3.9 to 500 μM, 48 hours, vs non-treated negative control
# [2] = tested on: NIH3T3 fibroblast lines; test: as above; settings: NIH3T3 fibroblasts, 3.9 to 500 μM, 48 hours, vs non-treated negative control
smiles,measurement,setting,value
"CN(Cc1cnc2nc(N)nc(N)c2n1)c1ccc(C(=O)N[C@@H](CCC(=O)O)C(=O)O)cc1 [methotrexate, Methotrexate]",cytotoxicity (inhibition of cell proliferation),[1],exhibited a significant degree of cytotoxicity
same,cytotoxicity (inhibition of cell proliferation),[2],exhibited a significant degree of cytotoxicity
